The values that follow come from paper PMC4900628, “Critical Evaluation of P2X7 Receptor Antagonists in Selected Seizure Models” (PLoS ONE, 2016).

For test [1], the system named is PTZ-induced generalized clonic seizures. Put plainly: Pentylenetetrazol seizure threshold test (PTZ-T). Format: in vivo. As to conditions: for Cases of death (within 30 min) / Latency to the first gen. Clonus / Latency to the first gen. clonus (% of control) / latency to the onset of the first clonic seizures at higher doses / Latency to the first gen. Clonus (% control): mice; for Cases of death (within 30 min): n=12; for Latency to the first gen. Clonus: mean ± SEM; for latency to the onset of the first clonic seizures at higher doses: compounds alone, PTZ 87 mg/kg s.c. The protocol: Unrestrained mice, placed in separate full-view Plexiglas cages, were injected with the convulsant drug PTZ, a non-competitive GABAA receptor antagonist, at a dose of 87 mg/kg s.c. in the neck and the appearance of the first generalized clonus (repeated clonic seizures of the fore- and hindlimbs lasting ≥3 s with an accompanying loss of righting reflex) was recorded during individual observation for 30 min (see [69]). […] Group sizes of 12 mice were used in all experiments. Control groups, which received vehicle, were tested together with the compound-treated group on the same experimental day. The number of animals in the group with a generalized clonic seizure and the latency time to its onset were analysed for statistical significance. In the absence of seizures within 30 min, the latency was taken as 1800 s.
For the seizure tests (MES-T, PTZ-T, PTZ-kindling), BBG and TIIAS was dissolved in polyethylene glycol (PEG BioUltra, 400, Sigma-Aldrich), diluted to 20% with aqua (aqua ad iniectabilia, Braun, Melsungen, Germany). AFC was solubilized in ≥97% N,N-dimethylacetamide (DMA, Sigma-Aldrich), vortexed and diluted with 45% 2-hydroxypropyl-ß-cyclodextrin (ß-CD, Sigma-Aldrich) (final ratio of the vehicle 1:9). JNJ-47965567 was solubilized in two equivalents of 1N HCl, vortexed and sonicated (until the compound was mostly diluted) and then 30% of sulfobutylether-ß-cyclodextrin (SBE-ß-CD, Toronto Res. Chemicals, Toronto, Canada) was slowly added. The pH was adjusted with 1N NaOH (similar amount of NaOH as HCl), all with continuous stirring. PTZ was dissolved in 0.9% NaCl-solution, carbamazepine, ethosuximide and Ca-valproate were administered in a 2% (w/v) suspension of hydroxyethylcellulose. The drug solutions or suspensions were prepared immediately before use; all doses refer to the salts. Animals in the control group received equivalent volumes of the vehicle (in mice always 10 ml/kg, in rats 1 ml/kg [JNJ], 3 ml/kg [AFC] or 4 ml/kg [BBG, TIIAS], depending on the solubility of the different compounds). Doses and peak time effects were selected on the basis of effective doses from corresponding in vivo studies in the literature: BBG (e.g.), tanshinone IIA (e.g.) and from manufacturer’s experimental data: AFC, JNJ (see, [80]).
Data were analysed using SigmaPlot (vers. 12.0, Systat Software, Erkrath, Germany) and SPSS (IBM SPSS Statistics 20, Ehningen, Germany), respectively. Results are expressed as mean ± SEM. In the fluorometric Ca^2+ assays, concentration-response curves were fitted by using a 4-parameter logistic function (Hill slope, Emin, Emax, IC50). […] In the MES-T, the current intensity inducing tonic hindlimb extensions in 50% of the mice (CC50 values with confidence limits for 95% probability) and the statistical significance was calculated using Probit analysis (SPSS). In the case of multiple comparisons between different groups α-correction was performed so that only differences with a P value of < 0.01 were considered significant. In the PTZ-T, the number of animals in the group with clonic seizures and the latency time were analysed using Fisher's exact probability test and the Mann-Whitney rank sum test, respectively. For multiple comparisons of the latency time a one-way ANOVA with the Holm-Sidak post hoc test was used. The influence of AFC on the plasma and brain concentrations of the antiepileptic drugs was statistical compared using the same procedure. In the PTZ-kindling model, the mean seizure stage within a group was calculated in relation to the number of PTZ-injections. Statistical comparison between vehicle- and compound-treated groups in this model was performed with two-way repeated measures ANOVA, followed by the Holm-Sidak post hoc test. The mean number of PTZ-injections needed to produce the first generalized seizure (≥ stage 3 convulsions) in the vehicle- versus compound-treated groups was statistically compared using a Mann-Whitney rank sum test.

For a further test, the system named is PTZ-induced kindling. Briefly: PTZ-induced kindling development. Format: in vivo, rats. As to conditions: for mean seizure stages after 8-day treatment-free interval (21st-25th PTZ-injection, vehicle only): rats formerly treated with TIIAS 30, BBG 50, AFC 30 mg/kg i.p. or JNJ 15 mg/kg s.c.; for mean number of PTZ-injections needed to produce the first generalized seizure (≥ stage 3) vs vehicle / effect on PTZ-kindling development (mean seizure stages): rats; for mean number of PTZ-injections needed to produce the first generalized seizure (≥ stage 3) vs vehicle: TIIAS 30, BBG 50, AFC 30 mg/kg i.p., JNJ 15 mg/kg s.c.; for effect on PTZ-kindling development (mean seizure stages): TIIAS 30 and BBG 50 mg/kg i.p. 45 min, AFC 30 mg/kg i.p. 45 min, JNJ 15 mg/kg s.c. 30 min before each PTZ 35 mg/kg i.p., every 48 h, 20 injections. As to the method: For PTZ-kindling, the initial sub-convulsive dose of PTZ (35 mg/kg) was injected i.p. once every 48 h (on Monday, Wednesday, and Friday, three times a week). After vehicle or vehicle/compound pre-treatment, PTZ was injected and the rats were individually observed for 30 min. Behavioural seizure responses were scored according to a defined graduation from stage 0 to stage 5. […] Rats received 20 successive PTZ-kindling stimulations. After an 8-day treatment-free interval, the animals were re-tested with PTZ (21st-25th injection) and vehicle pre-treatment without the compounds. […] Additional care was taken the hours following generalized tonic-clonic seizures and status epilepticus by providing the animals with soft food pellets and tap water if required. All efforts were made to minimize suffering. […] Chemicals, Toronto, Canada) was slowly added. The pH was adjusted with 1N NaOH (similar amount of NaOH as HCl), all with continuous stirring. […] The drug solutions or suspensions were prepared immediately before use; all doses refer to the salts. Animals in the control group received equivalent volumes of the vehicle (in mice always 10 ml/kg, in rats 1 ml/kg [JNJ], 3 ml/kg [AFC] or 4 ml/kg [BBG, TIIAS], depending on the solubility of the different compounds). Doses and peak time effects were selected on the basis of effective doses from corresponding in vivo studies in the literature: BBG (e.g.), tanshinone IIA (e.g.) and from manufacturer's experimental data: AFC, JNJ (see, [80]). Data were analysed using SigmaPlot (vers. 12.0, Systat Software, Erkrath, Germany) and SPSS (IBM SPSS Statistics 20, […], Germany), respectively. Results are expressed as mean ± SEM. […] In the MES-T, the current intensity inducing tonic hindlimb extensions in 50% of the mice (CC50 values with confidence limits for 95% probability) and the statistical significance was calculated using Probit analysis (SPSS). […] In the PTZ-T, the number of animals in the group with clonic seizures and the latency time were analysed using Fisher's exact probability test and the Mann-Whitney rank sum test, respectively. For multiple comparisons of the latency time a one-way ANOVA with the Holm-Sidak post hoc test was used. The influence of AFC on the plasma and brain concentrations of the antiepileptic drugs was statistical compared using the same procedure. In the PTZ-kindling model, the mean seizure stage within a group was calculated in relation to the number of PTZ-injections. Statistical comparison between vehicle- and compound-treated groups in this model was performed with two-way repeated measures ANOVA, followed by the Holm-Sidak post hoc test. The mean number of PTZ-injections needed to produce the first generalized seizure (≥ stage 3 convulsions) in the vehicle- versus compound-treated groups was statistically compared using a Mann-Whitney rank sum test. In fully kindled rats, the calculated mean seizure stage within a group after vehicle- and compound-treatment were compared using a paired t-test. P < 0.05 was the accepted minimum level of significance.

Where [2] appears, read: 15 mg/kg i.p. 30 min before PTZ 87 mg/kg s.c.
The mark [3] stands for this setting: 30 mg/kg i.p. 30 min before PTZ 87 mg/kg s.c.
Setting [4] is: series JNJ-47965567 15 mg/kg and/or ethosuximide 100 mg/kg, all i.p. 30 min before PTZ 87 mg/kg s.c.
[5] abbreviates: series JNJ-47965567 30 mg/kg and/or ethosuximide 100 mg/kg, all i.p. 30 min before PTZ 87 mg/kg s.c.
[6] abbreviates: 30 mg/kg i.p. 45 min before PTZ 87 mg/kg s.c.

As to `O=C(NCC1(N2CCN(c3ccccc3)CC2)CCOCC1)c1cccnc1Sc1ccccc1` [JNJ-47965567, N-[[4-(4-phenyl-piperazin-1-yl)tetrahydro-2H-pyran-4-yl]-methyl]-2-(phenyl-thio) nicotinamide], the “# of mice/ with seizure” value in test [1] (setting [2]) is 12/12; in test [1] (setting [3]), 12/10. In addition, the “Cases of death (within 30 min)” value in test [1] (setting [2]) is given as 2; in test [1] (setting [3]), 1; in test [1] (series JNJ-47965567 15 mg/kg and/or ethosuximide 100 mg/kg i.p. 30 min before PTZ 87 mg/kg s.c.), 3; in test [1] (series JNJ-47965567 30 mg/kg and/or ethosuximide 100 mg/kg i.p. 30 min before PTZ 87 mg/kg s.c.), 1. Further, the “Latency to the first gen. Clonus” value amounted to 7.31 ± 2.19 min in test [1] (setting [2]), 13.66 ± 2.94 min in test [1] (setting [3]), 5.19 ± 1.19 min in test [1] (setting [4]) and 9.42 ± 2.89 min in test [1] (setting [5]). The “Latency to the first gen. clonus (% of control)” value came to 105.3 ± 31.6% in test [1] (15 mg/kg i.p. 30 min before PTZ 87 mg/kg s.c., vehicle 6.94 ± 1.31 min) and 191.6 ± 41.2% in test [1] (30 mg/kg i.p. 30 min before PTZ 87 mg/kg s.c., vehicle 7.13 ± 1.49 min). Moreover, the “latency to the onset of the first clonic seizures at higher doses” value in test [1] is recorded as “tended to increase the latency”. Also, the “Latency to the first gen. Clonus (% control)” value in test [1] (series JNJ-47965567 15 mg/kg and/or ethosuximide 100 mg/kg i.p. 30 min before PTZ, control 4.74 ± 0.64 min) came out at 109.4 ± 25.1%; in test [1] (series JNJ-47965567 30 mg/kg and/or ethosuximide 100 mg/kg i.p. 30 min before PTZ, control 6.14 ± 1.34 min) it was 153.4 ± 47.1%. The “# of mice/ with seizures” value is on record as 12/12 in test [1] (setting [4]) and 12/10 in test [1] (setting [5]). Moreover, the “mean seizure stages after 8-day treatment-free interval (21st-25th PTZ-injection, vehicle only)” value in the test with PTZ-induced kindling is listed as “persisted after compound treatment ceased”. Also, the “mean number of PTZ-injections needed to produce the first generalized seizure (≥ stage 3) vs vehicle” value with PTZ-induced kindling is recorded as “required significantly more PTZ-injections”. In the test with PTZ-induced kindling, the “effect on PTZ-kindling development (mean seizure stages)” value is reported as “significantly reduced the PTZ-kindling development”.
`Cc1c(S(=O)(=O)[O-])oc2c1C(=O)C(=O)c1c-2ccc2c1CCCC2(C)C.[Na+]` [Tanshinone TIIAS, tanshinone IIS sulfonic sodium]: in test [1] (setting [6]), the “# of mice/ with seizure” value is listed as 12/11, the “Cases of death (within 30 min)” value turned out to be 0 and the “Latency to the first gen. Clonus” value was determined as 10.08 ± 2.64 min. Besides, the “Latency to the first gen. clonus (% of control)” value in test [1] (30 mg/kg i.p. 45 min before PTZ 87 mg/kg s.c., vehicle 5.00 ± 1.04 min) is listed as 201.6 ± 52.8%. In test [1], the “latency to the onset of the first clonic seizures at higher doses” value was “tended to increase the latency”. Besides, in the test with PTZ-induced kindling, the “mean seizure stages after 8-day treatment-free interval (21st-25th PTZ-injection, vehicle only)” value was “no differences of the mean seizure stages”; the “mean number of PTZ-injections needed to produce the first generalized seizure (≥ stage 3) vs vehicle” value is “required significantly more PTZ-injections”; the “effect on PTZ-kindling development (mean seizure stages)” value is given as “moderate, yet significant retarding effect on kindling development”.
